Earlier results, collected in patent publication US7507425B2, “Method for the treatment of cachexia” (The Quigley Corporation, priority 2005, dated 2009).

Tested on: nitric oxide synthase (NOS)
Details: Northern-blot and immunoblotting; macrophages activated with vs without curcumin

## COc1cc(/C=C/C(=O)CC(=O)/C=C/c2ccc(O)c(OC)c2)ccc1O [curcumin]
  levels of mRNA and 130-k Da protein of inducible NOS: significantly reduced levels
